Values after ≈ are worked out from the molar mass of the structure shown.
Columns and labels:
[1] = Retention time of compound by RP-HPLC method; type: physicochemical
[2] = system: Pseudomonas aeruginosa; assay: Antibacterial activity against Pseudomonas aeruginosa ATCC BAA-427 incubated for 16 to 18 hrs by broth dilution assay; type: functional; details: time 16-18 hrs
[3] = system: Staphylococcus aureus; assay: Antibacterial activity against Staphylococcus aureus ATCC 25923 incubated for 16 to 18 hrs by broth dilution assay; type: functional; details: time 16-18 hrs
[4] = system: Bacillus subtilis; assay: Antibacterial activity against Bacillus subtilis 6633 incubated for 16 to 18 hrs by broth dilution assay; type: functional; details: time 16-18 hrs
[5] = Hemolytic activity in human RBC measured after 40 mins by absorbance based assay; type: toxicity, cell-based, Erythrocyte; details: human red blood cells
[6] = system: Escherichia coli; assay: Antibacterial activity against Escherichia coli ATCC 25922 incubated for 16 to 18 hrs by broth dilution assay; type: functional; details: time 16-18 hrs
[7] = system: Klebsiella pneumoniae; assay: Antibacterial activity against Klebsiella pneumoniae ATCC 27736 incubated for 16 to 18 hrs by broth dilution assay; type: functional; details: time 16-18 hrs
[8] = system: Staphylococcus aureus; assay: Antibacterial activity against methicillin-resistant Staphylococcus aureus 33591 incubated for 16 to 18 hrs by broth dilution assay; type: functional; details: time 16-18 hrs
[9] = system: Staphylococcus aureus; assay: Antibacterial activity against methicillin-resistant Staphylococcus aureus BAA-44 incubated for 16 to 18 hrs by broth dilution assay; type: functional; details: time 16-18 hrs

Compound	Retention_time [1] [min]	MIC [2] [µM]	MIC [3] [µM]	MIC [4] [µM]	HC50 at 40 min [5] [mM]	MIC [6] [µM]	MIC [7] [µM]	MIC [8] [µM]	MIC [9] [µM]
H-VLGRLVLGRLVLGRL-OH	19.07	> 122	7.6	> 122	2	7.6	> 122	122	61.2
H-KVLGKVLGKVLG-OH	15.26	> 165	> 165	> 165	2	> 165	> 165	> 165	> 165
H-LGRLVLGRLVLGRLV-OH	18.77	> 122	15.3	> 122	2	7.6	> 122	> 122	61.2
CC1(C)S[C@@H]2[C@H](NC(=O)[C@H](N)c3ccccc3)C(=O)N2[C@H]1C(=O)O [AMPICILLIN]		25 (≈ 8.74 µg/mL)	3.1 (≈ 1.08 µg/mL)	1.6 (≈ 0.559 µg/mL)		12.5 (≈ 4.37 µg/mL)	100 (≈ 34.9 µg/mL)	12.5 (≈ 4.37 µg/mL)	25 (≈ 8.74 µg/mL)
H-LGRLGRLGRLGRLGR-OH	16.23	60.6	1.9	30.3	2	1.9	> 121	> 121	60.6
H-VLGRLVVLGRLV-OH	17.91	> 155	> 155	> 155	2	77.4	> 155	> 155	> 155
H-VLGRLVLGRL-OH	16.21	183	183	> 183	2	183	183	> 183	> 183
H-VLGRVLGRVLGR-OH	15.4	> 155	> 155	> 155	2	> 155	> 155	> 155	> 155
H-KVLGRKVLGR-OH	10.61	> 178	178	> 178	2	178	> 178	> 178	> 178
H-LGRLVLGRLV-OH	16.21	> 183	183	> 183	2	91.4	> 183	> 183	> 183
H-LGRLGRLGRLGR-OH	20.45	> 151	> 151	151	2	15.5	> 151	> 151	> 151
H-KVLGRKVLGRKVLGR-OH	11.73	> 119	29.8	> 119	2	29.8	> 119	> 119	> 119
H-GRLVGRLVGRLV-OH	13.4	155	> 155	> 155	2	155	155	> 155	> 155
H-KVLGRLKVLGRL-OH	16.81	> 147	> 147	> 147	2	74	> 147	> 147	> 147
H-GRLGRLGRLGRL-OH	20.87	75.6	4.7	18.9	2	18.9	> 151	18.9	18.9
